Measurements reported in patent US20210363152A1, “AMINOAZINE AMIDES” (Hoffmann-La Roche Inc., priority 2018, published 2021).

Target: T1, Autotaxin enzyme (ATX) (Homo sapiens, UniProt Q13822)
T1 construct: purchased Echelon Biosciences, Inc. E-4000
Experiment: In vitro ATX assay (enzymatic ATX inhibition, LPC 14:0 substrate, choline oxidase/HRP absorbance readout)
Format: biochemical
Conditions: 0.3 mM LPC 14:0, 37° C., 4 hours, absorbance 555 nm
Protocol: • Assay buffer: 100 mM Tris-HCl, pH 9.0, 500 mM NaCl, 5 mM MgCl2, 30 μM CoCl2, 0.05% Triton X-100 • Assay buffer II: 4.5 mM 4-AAP, 2.7 mM TOOS, 21.2 U/mL HRP, 3 U/mL CO, In 50 mM Tris-HCl pH 8.0, 4.5 mM MgCl2
A compound preparation plate (Nunc 249944) was prepared by adding 30 mM stock solution (in DMSO) of test compound and performing a serial full-log dilution down to 30 nM. Two μL/well were transferred from the first compound prep plate to a compound dilution plate (Corning, 3641) and 198 μL assay buffer I was added for a […].
A 10 ng/mL solution of ATX was prepared by diluting in assay buffer I, and 80 μL/well were added to the assay plate (Corning, 3641); negative control wells contained 80 μL/well assay buffer I only (no ATX). Ten μL/well from the compound dilution plate (containing serially diluted test compound or DMSO) were added to the assay plate, which was then incubated at 37° C. for 15 minutes. A solution of LPC 14:0 was prepared in assay buffer I at 3 mM and 10 μl/well were added to the assay plate, for a final concentration of 0.3 mM LPC, and returned to 37° C. incubator for 4 hours. After 4 hour incubation, 100 μL/well of assay buffer II was added to all wells of the assay plate. The plate was incubated at RT for 15 minutes, prior to reading on FlexStation in absorbance mode, 555 nm. Results in the enzymatic ATX inhibition assay are provided for compounds of formula (I). An IC50 value of “A” is less than 100 nM, “B” is equal to or greater than 100 nM but less than 1 μM, “C” is equal to or greater than 1 μM.

Row | SMILES | IC50 [nM]
1 | CC(C)c1cc(CNc2ncc(C(=O)N3CCC34COC4)cn2)cc(OC(F)(F)F)c1 [Example 1, (2-((3-Isopropyl-5-(trifluoromethoxy)benzyl)amino)pyrimidin-5-yl) (6-oxa-1-azaspiro[3.3]heptan-1-yl)methanone] | < 100
2 | O=C(c1cnc(NCc2cccc(OC(F)(F)F)c2)nc1)N1CCC12COC2 [Example 2] | 100 to 1000
3 | O=C(c1cnc(NCc2cccc(OC(F)(F)F)c2)nc1)N1CC2(COC2)C1 [Example 3] | ≥ 1000
4 | CC(C)(C)c1cc(CNc2ncc(C(=O)N3CCC34COC4)cn2)cc(OC(F)(F)F)c1 [Example 4] | < 100
5 | CC1CCN1C(=O)c1cnc(NCc2cc(OC(F)(F)F)cc(C(C)(C)C)c2)nc1 (centres unmarked) [Example 5] | 100 to 1000
6 | CC(C)c1cc(CNc2ncc(C(=O)N3CCC3C)cn2)cc(OC(F)(F)F)c1 (centres unmarked) [Example 6] | < 100
7 | O=C(c1cnc(NC2Cc3ccccc3C2)nc1)N1CCC12COC2 [Example 7] | 100 to 1000
8 | O=C(c1cnc(NC2Cc3ccccc3C2)nc1)N1CCC1 [Example 8] | 100 to 1000
9 | CC1CCN1C(=O)c1cnc(NCc2cc(C(F)(F)F)cc(C(F)(F)F)c2)nc1 (centres unmarked) [Example 9] | 100 to 1000
10 | CC1CCN1C(=O)c1cnc(NCc2cc(Cl)cc(Cl)c2)nc1 (centres unmarked) [Example 10] | 100 to 1000
11 | COc1cc(CNc2ncc(C(=O)N3CCC3C)cn2)cc(OC)c1 (centres unmarked) [Example 11] | ≥ 1000
12 | Cc1cc(CNc2ncc(C(=O)N3CCC3C)cn2)cc(OC(F)(F)F)c1 (centres unmarked) [Example 12] | 100 to 1000
13 | CC(Nc1ncc(C(=O)N2CCC23COC3)cn1)c1cccc(OC(F)(F)F)c1 (centres unmarked) [Example 13] | ≥ 1000
14 | N#Cc1cccc(CNc2ncc(C(=O)N3CCC34COC4)cn2)c1 [Example 14] | ≥ 1000
15 | O=C(c1cnc(NCc2cccc(Cl)c2)nc1)N1CCC12COC2 [Example 15] | ≥ 1000
16 | CS(=O)(=O)c1cccc(CNc2ncc(C(=O)N3CCC34COC4)cn2)c1 [Example 16] | ≥ 1000
17 | O=C(c1cnc(NCc2cccc(OC(F)F)c2)nc1)N1CCC12COC2 [Example 17] | ≥ 1000

Row | SMILES | IC50 [nM]
18 | O=C(c1cnc(NCc2cccc(C(F)F)c2)nc1)N1CCC12COC2 [Example 18] | ≥ 1000
19 | CC(C)c1cc(CNc2ncc(C(=O)N3CCC34COC4)cn2)cc(S(F)(F)(F)(F)F)c1 [Example 19] | 100 to 1000
20 | O=C(c1cnc(NCc2cccc(C(F)(F)F)c2)nc1)N1CCC12COC2 [Example 20] | ≥ 1000
21 | CC(C)c1cc(CNc2ncc(C(=O)N3CCCC3)cn2)cc(OC(F)(F)F)c1 [Example 21] | < 100
22 | CC(C)c1cc(CNc2ncc(C(=O)N3CCCCC3)cn2)cc(OC(F)(F)F)c1 [Example 22] | 100 to 1000
23 | O=C(c1cnc(NCc2cc(OC(F)(F)F)cc(C3CCC3)c2)nc1)N1CCC12COC2 [Example 23] | < 100
24 | O=C(c1cnc(NCc2cccc(S(F)(F)(F)(F)F)c2)nc1)N1CCC12COC2 [Example 24] | 100 to 1000
25 | O=C(c1cnc(NCc2cc(Br)cc(OC(F)(F)F)c2)nc1)N1CCC12COC2 [Example 25] | < 100
26 | O=C(c1cnc(NCc2cc(F)cc(OC(F)(F)F)c2)nc1)N1CCC12COC2 [Example 26] | 100 to 1000
27 | O=C(c1cnc(NCc2cc(OCC3CC3)cc(OC(F)(F)F)c2)nc1)N1CCC12COC2 [Example 27] | < 100
28 | CC(C)Oc1cc(CNc2ncc(C(=O)N3CCC34COC4)cn2)cc(OC(F)(F)F)c1 [Example 28] | < 100
29 | COc1cc(CNc2ncc(C(=O)N3CCC34COC4)cn2)cc(OC(F)(F)F)c1 [Example 30] | 100 to 1000
30 | CCOc1cc(CNc2ncc(C(=O)N3CCC34COC4)cn2)cc(OC(F)(F)F)c1 [Example 31] | < 100
31 | COc1ccc2c(c1)CC(Nc1ncc(C(=O)N3CCC34COC4)cn1)C2 (centres unmarked) [Example 32] | 100 to 1000
32 | O=C(c1cnc(NC2Cc3ccc(Cl)cc3C2)nc1)N1CCC12COC2 (centres unmarked) [Example 33] | < 100
33 | N#Cc1ccc2c(c1)CC(Nc1ncc(C(=O)N3CCC34COC4)cn1)C2 (centres unmarked) [Example 34] | 100 to 1000
34 | O=C(c1cnc(NCc2cc(OCC(F)(F)F)cc(OC(F)(F)F)c2)nc1)N1CCC12COC2 [Example 35] | < 100

Now from value to molecule:

Row | IC50 [nM] | SMILES
35 | < 100 | CC(C)c1cc(CNc2ncc(C(=O)N3CCC3C)cn2)cc(OC(F)(F)F)c1 (single isomer, unassigned) [Example 69, (2-((3-Isopropyl-5-(trifluoromethoxy)benzyl)amino)pyrimidin-5-yl)(2-methylazetidin-1-yl)methanone]
36 | < 100 | CC(C)c1cc(CNc2ncc(C(=O)N3CCC3C)cn2)cc(OC(F)(F)F)c1 (single isomer, unassigned) [Example 70, (2-((3-Isopropyl-5-(trifluoromethoxy)benzyl)amino)pyrimidin-5-yl)(2-methylazetidin-1-yl)methanone]
37 | < 100 | O=C(c1cnc(NCc2cc(OC(F)(F)F)cc(C3CC3)c2)nc1)N1CCC12CCOC2 (single isomer, unassigned) [Example 116, (2-((3-Cyclopropyl-5-(trifluoromethoxy)-benzyl)amino)pyrimidin-5-yl)(6-oxa-1-azaspiro[3.4]octan-1-yl) methanone]
38 | < 100 | O=C(c1cnc(NCc2cc(OC(F)(F)F)cc(C3CC3)c2)nc1)N1CCC12CCOC2 (single isomer, unassigned) [Example 117, (2-((3-Cyclopropyl-5-(trifluoromethoxy)-benzyl)amino)pyrimidin-5-yl)(6-oxa-1-azaspiro[3.4]octan-1-yl) methanone]
39 | < 100 | CC1CC(C)N1C(=O)c1cnc(NCc2cc(OC(F)(F)F)cc(C3CC3)c2)nc1 (single isomer, unassigned) [Example 118, (2-((3-Cyclopropyl-5-(trifluoromethoxy)-benzyl)amino)pyrimidin-5-yl)(2,4-dimethylazetidin-1-yl)methanone]
40 | ≥ 1000 | CC1CC(C)N1C(=O)c1cnc(NCc2cc(OC(F)(F)F)cc(C3CC3)c2)nc1 (single isomer, unassigned) [Example 119, (2-((3-Cyclopropyl-5-(trifluoromethoxy)-benzyl)amino)pyrimidin-5-yl)(2,4-dimethylazetidin-1-yl)methanone]
41 | < 100 | CC1CC(C)N1C(=O)c1cnc(NCc2cc(OC(F)(F)F)cc(C3CC3)c2)nc1 (single isomer, unassigned) [Example 120, (2-((3-Cyclopropyl-5-(trifluoromethoxy)-benzyl)amino)pyrimidin-5-yl)(2,4-dimethylazetidin-1-yl)methanone]
42 | < 100 | O=C(c1cnc(NCc2cc(OC(F)(F)F)cc(C3CC3)c2)nc1)N1CCC12CCCOC2 (single isomer, unassigned) [Example 121, (2-((3-Cyclopropyl-5-(trifluoromethoxy)benzyl)amino)-pyrimidin-5-yl)(6-oxa-1-azaspiro[3.5]nonan-1-yl)methanone]
43 | < 100 | O=C(c1cnc(NCc2cc(OC(F)(F)F)cc(C3CC3)c2)nc1)N1CCC12CCCOC2 (single isomer, unassigned) [Example 122, (2-((3-Cyclopropyl-5-(trifluoromethoxy)benzyl)amino)-pyrimidin-5-yl)(6-oxa-1-azaspiro[3.5]nonan-1-yl)methanone]
44 | < 100 | O=C(c1cnc(NCc2cc(C3CC3)cc(C(F)(F)F)c2)nc1)N1CCC12COC2 [Example 36]
45 | < 100 | O=C(c1cnc(NCc2cc(C3CC3)cc(C3CC3)c2)nc1)N1CCC12COC2 [Example 37]
46 | < 100 | CC(C)Oc1cc(CNc2ncc(C(=O)N3CCC34COC4)cn2)cc(C2CC2)c1 [Example 38]
47 | < 100 | CCCc1cc(CNc2ncc(C(=O)N3CCC34COC4)cn2)cc(OC(C)C)c1 [Example 39]
48 | < 100 | CN1CCC2(CC1)CCN2C(=O)c1cnc(NC2Cc3ccc(Cl)cc3C2)nc1 (centres unmarked) [Example 40]
49 | < 100 | CC1(C)CCN1C(=O)c1cnc(NC2Cc3ccc(Cl)cc3C2)nc1 (centres unmarked) [Example 41]
50 | < 100 | O=C(c1cnc(NC2Cc3ccc(F)cc3C2)nc1)N1CCC12COC2 (centres unmarked) [Example 42]
51 | < 100 | O=C(c1cnc(NC2Cc3ccc(Br)cc3C2)nc1)N1CCC12COC2 (centres unmarked) [Example 43]
52 | < 100 | CC1CCN1C(=O)c1cnc(NC2Cc3ccc(Cl)cc3C2)nc1 (centres unmarked) [Example 44]
53 | < 100 | O=C(c1cnc(NC2Cc3ccc(Cl)cc3C2)nc1)N1CCC1C(F)F (centres unmarked) [Example 45]
54 | < 100 | O=C(c1cnc(NC2Cc3ccc(Cl)cc3C2)nc1)N1CCCC12COC2 (centres unmarked) [Example 46]
55 | < 100 | O=C(c1cnc(NC2Cc3ccc(Cl)cc3C2)nc1)N1CCC12CCOCC2 (centres unmarked) [Example 47]
56 | < 100 | O=C(c1cnc(NC2Cc3ccc(Cl)cc3C2)nc1)N1CCC12CCCOC2 (centres unmarked) [Example 48]
57 | < 100 | O=C(c1cnc(NC2Cc3ccc(Cl)cc3C2)nc1)N1CCC12CS(=O)(=O)C2 (centres unmarked) [Example 49]
58 | 100 to 1000 | O=C(c1cnc(NCc2cc(Cl)cc(Cl)c2)nc1)N1CCC12COC2 [Example 50]
59 | ≥ 1000 | O=C(c1cnc(NCc2ccc(Cl)c(Cl)c2)nc1)N1CCC12COC2 [Example 51]
